Results from US10273279B2, “Protease activated receptor-1 (PAR1) derived cytoprotective polypeptides and related methods” (THE SCRIPPS RESEARCH INSTITUTE, priority 2011, dated 2019).

Columns and labels:
[1] = test system: Akt phosphorylation at Ser473 in EA.hy.926 human endothelial cells; assay: Akt Ser473 phosphorylation in EA.hy.926 endothelial cells (in-cell Western); type: cell-based; settings: for pSer473-Akt (Akt phosphorylation): 0, 5 or 30 min, TFLL 50 μM, NPND 250 μM, scr-NPND 250 μM; for Ser473-Akt phosphorylation (activation of Akt): Example 7, under the employed experimental conditions
Text: (§1) Activated Protein C (APC) cleaves a synthetic PAR1 tail peptide at Arg^41 and Arg^46; furthermore, APC cleaves SEAP-PAR1 mutants with the mutations R41A or R41Q but not SEAP-PAR1 with both R41Q/R46Q mutations. […] It was thus hypothesized that a new PAR1 N-terminus beginning at residue Asn-47 promotes PAR1 signaling and APC cytoprotective activities. Since phosphorylation of signaling network components is useful for monitoring activation of signaling pathways, the effects of synthetic PAR1 peptides on Akt and ERK1/2 phosphorylation in EA.hy.926 human endothelial cells were studied. Cells were treated for 0, 5 or 30 min with peptides prior to cell fixation, permeabilization of cells and subsequent immunoblotting analysis (“in-cell Western blotting”). Relative phosphorylation of Akt at Ser^473 (pSer^473-Akt) or of ERK1/2 at Thr202/204 (pERK1/2) in endothelial cells was quantified using the LI-COR Odyssey infrared (IR) fluorescence imaging system which permits “in cell” Western blots. The Odyssey permits simultaneous quantification of different antibodies that yield either red or green signals.
(§2) Methods: EA.hy.926 cells (ATCC: CRL-2922) were grown in black clear bottom 96 well plates (Nunc) in DMEM (Invitrogen #12430) supplemented with glutamax (Invitrogen #35050) and 10% FBS (Hyclone #35-011-CV) in a 37° C. cell incubator with a humidified atmosphere and 5% CO2 in air until confluency. Cells were treated for 0, 5 or 30 min with PAR1 peptides TFLL (50 μM), NPND (250 μM) or scr-NPND (250 μM) or with vehicle in serum free media. Subsequently cells were fixed with methanol free 4% para-formaldehyde (Pierce), washed with phosphate buffered saline (PBS; Invitrogen) containing 1% triton X-100 and blocked with Odyssey blocking buffer (Licor). Cells were incubated with rabbit anti-pT202/Y204 ERK1/2 (1/1000; Cell signaling D13.14.4E) or rabbit anti-pSer^473 (1/100; cell signaling D9E) with Odyssey blocking buffer. After washing with PBS/0.1% Tween (1/800), IRDye 800CW-labelled secondary goat anti-rabbit antibodies (Licor) were added to the cells in Odyssey blocking buffer and 1/10,000 Draq5 (Biostatus) for cell normalization. After final washing with PBS/0.1% Tween IR, the fluorescence of bound antibodies was determined using the Odyssey (Licor). Background fluorescence was determined by omitting the primary antibody and subtracting values for controls from all other observed values.

[2] = test system: ERK1/2 phosphorylation at Thr202/204 in EA.hy.926 human endothelial cells; assay: ERK1/2 phosphorylation in EA.hy.926 endothelial cells (in-cell Western); type: cell-based; settings: for ERK1/2 phosphorylation (pERK1/2): 0, 5 or 30 min, TFLL 50 μM, NPND 250 μM, scr-NPND 250 μM; for activation of ERK1/2: Example 7
Text: as §1, §2

[3] = test system: glycogen synthase kinase 3β (GSK3β) phosphorylation at Ser9; assay: GSK3β Ser9 phosphorylation in endothelial cells; type: cell-based, human; settings: for Ser9-GSK3β phosphorylation: Example 6
Experimental: To further confirm activation of Akt by the TR47-66 peptide, Akt-mediated inactivation of glycogen synthase kinase 3β (GSK3β) via phosphorylation at Ser9 was determined. GSK3β is a well-known downstream substrate for Akt.

[4] = test system: ERK1/2 phosphorylation in EAhy926 endothelial cells; assay: ERK1/2 phosphorylation in EA.hy.926 endothelial cells, Western blot of lysates (LI-COR Odyssey); type: cell-based, human; settings: 5 min; 10 nM APC or thrombin, 10 μM TFLL peptide, 50 μM TR47-66 or scr-TR47-66
Experimental: To assess whether PAR1 cleaved at Arg^46 would generate a PAR1 N-terminus that is capable of promoting PAR1 signaling, we studied the effects of synthetic peptides on ERK1/2 phosphorylation in EAhy926 endothelial cells. […] Relative phosphorylation of ERK1/2 was determined using the LI-COR Odyssey infrared imaging system which permits quantitative analysis over a wide dynamic range.
In this figure (left), anti-pT202Y204-ERK1/2 antibodies appear green while total anti-ERK1/2 antibodies appear red, and orange intensity reflects overlaps. […] The signal for phosphorylated ERK1/2 (green channel) was normalized to the signal for total ERK1/2 antigen (red channel) to quantify relative phosphorylation as a ratio, and the results are seen in the bar graph. […] The control scr-TR47-66 peptide (scrambled residues 47-66) caused no increase.
Methods: EA.hy.926 cells (ATCC; CRL-2922) were grown in 6-well plates in DMEM (Invitrogen #12430) supplemented with glutamax (Invitrogen #35050) and 10% FBS (Hyclone #35-011-CV) in a 37° C. cell incubator with a humidified atmosphere and 5% CO2 in air until confluency. […] Subsequently cells were resuspended in lysis buffer with protein and phosphatase inhibitors, cell lysates were applied to SDS-PAGE gel electrophoresis on 10% Bis-Tris gels with MOPS running buffer (Invitrogen) and transferred to PVDF membrane (Millipore) for Western blot analysis. Blots were blocked in Odyssey blocking buffer (Licor) and incubated with a combination of mouse anti-ERK1/2 (1/2000; Cell Signaling #3A7) and rabbit anti-pT202/204 ERK1/2 (1/1000; cell signaling #D13.14.4E) antibodies in Odyssey blocking buffer (Licor). After washing, blots were incubated with RDye680-labeled donkey anti-mouse (1/10,000; Licor) and IRDye800CW-labeled donkey anti-rabbit (1/10,000), washed again with PBS/0.1% Tween and IR fluorescence of bound antibodies was determined using the Odyssey (Licor).

Substance	pSer473-Akt (Akt phosphorylation) [1]	pSer473-Akt (Akt phosphorylation) ([1]; listed as NPND)	Ser473-Akt phosphorylation (activation of Akt) [1]	Akt phosphorylation at Ser473 in the presence of the PAR1 inhibitor SCH79797 ([1]; with SCH79797)	ERK1/2 phosphorylation (pERK1/2) [2]	activation of ERK1/2 [2]	Ser9-GSK3β phosphorylation [3]	increase in ERK1/2 phosphorylation (phospho/total ERK1/2 ratio) [4]	phosphorylation of GSK3β at Ser9 ([3]; Example 7)
NPNDKYEPFWEDEEKNESGL (listed as Homo sapiens) [TR47-66]	increased Akt phosphorylation at Ser^47	time-dependent sustained increase	induced activation of Akt	failed to induce Akt phosphorylation	essentially no effect	failed to induce any noticeable activation	induced significant Ser9-GSK3β phosphorylation starting at 30 min	–	–
APC: Activated Protein C, serine protease with anticoagulant and cytoprotective cell signaling activities	–	–	robust activation of Akt	–	–	transient but modest activation	–	1.5 fold	sustained phosphorylation
GDENENEKPNWYELKEPDSF (scrambled sequence) [scr-TR47-66, control scrambled TR47-66 peptide containing scrambled residues 47-66, reference compound]	essentially no effect	–	–	–	essentially no effect	–	no phosphorylation	no increase	–
thrombin	–	–	neither thrombin nor TRAP induced	–	–	–	–	3 fold	–
